Molecular target: T1, Savinase® 16.0L (Lederbergia lenta, UniProt P29600)
T1 construct: purchased Sigma-Aldrich
T1 sequence (P29600 1-269): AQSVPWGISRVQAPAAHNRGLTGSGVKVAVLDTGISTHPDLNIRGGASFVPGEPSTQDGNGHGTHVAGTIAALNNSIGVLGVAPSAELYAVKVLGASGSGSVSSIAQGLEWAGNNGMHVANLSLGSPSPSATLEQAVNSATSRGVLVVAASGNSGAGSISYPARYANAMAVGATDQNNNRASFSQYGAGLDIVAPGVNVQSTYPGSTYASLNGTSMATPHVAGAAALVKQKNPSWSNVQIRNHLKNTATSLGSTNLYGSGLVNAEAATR
Assay: Protease storage stability in liquid formulations at 37° C. (Suc-AAPF-pNA assay)
Format: biochemical
Conditions: 0.7 wt% Savinase 16.0 L
Procedure: The storage stability of protease was assessed at 37° C.
Base test formulations were manufactured by making base formulations I to V by mixing the components according to Table 1.
Protease used: Savinase® 16.0L (CAS-No. 9014-01-1, EC-No. 232-752-2) was purchased from Sigma-Aldrich.
The respective component (a) or comparative compound was added, if applicable, to the respective base formulation in amounts as indicated in Table 1.
The amount of protease as provided in Table 1 refers to active protein.
Water was added to accomplish the balance to 100.
Savinase activity at certain points in time as indicated in Table 2 was be determined by employing Succinyl-Ala-Ala-Pro-Phe-p-nitroanilide (Suc-AAPF-pNA, short AAPF) as substrate. pNA is cleaved from the substrate molecule by proteolytic cleavage, resulting in release of yellow color of free pNA which was determined by measuring OD405. Measurements were done at 20° C.
The proteolytic activity values provided in Table 3 were calculated referring to the 100% value determined in the reference formulation at the time 0.
The nomenclature of formulations is as follows: the Roman number before the full stop characterizes the base formulation, the Arabian number the type of compound (A. # compound according to invention (component (a)); (B. #) comparative compound).

[1] = base formulation I, 2.5 wt% compound, 3 d
[2] = base formulation I, 2.5 wt% compound, 7 d
[3] = base formulation I, 2.5 wt% compound, 14 d
[4] = base formulation I, 2.5 wt% compound, 21 d
[5] = base formulation I, 2.5 wt% compound, 28 d
[6] = base formulation I, 2.5 wt% compound, 35 d
[7] = base formulation I, 2.5 wt% compound, T0
[8] = base formulation II, 2.5 wt% compound, 3 d
[9] = base formulation II, 2.5 wt% compound, 7 d
[10] = base formulation II, 2.5 wt% compound, 14 d
[11] = base formulation II, 2.5 wt% compound, 21 d
[12] = base formulation II, 2.5 wt% compound, 28 d
[13] = base formulation II, 2.5 wt% compound, 35 d
[14] = base formulation II, 2.5 wt% compound, T0
[15] = base formulation III, 2.0 wt% compound, 3 d
[16] = base formulation III, 2.0 wt% compound, 7 d
[17] = base formulation III, 2.0 wt% compound, 14 d
[18] = base formulation III, 2.0 wt% compound, 21 d
[19] = base formulation III, 2.0 wt% compound, 28 d
[20] = base formulation III, 2.0 wt% compound, 35 d
[21] = base formulation III, 2.0 wt% compound, T0
[22] = base formulation IV, 2.0 wt% compound, 3 d
[23] = base formulation IV, 2.0 wt% compound, 7 d
[24] = base formulation IV, 2.0 wt% compound, 14 d
[25] = base formulation IV, 2.0 wt% compound, 21 d
[26] = base formulation IV, 2.0 wt% compound, 28 d
[27] = base formulation IV, 2.0 wt% compound, 35 d
[28] = base formulation IV, 2.0 wt% compound, T0
[29] = base formulation V, 2.0 wt% compound, 3 d
[30] = base formulation V, 2.0 wt% compound, 7 d
[31] = base formulation V, 2.0 wt% compound, 14 d
[32] = base formulation V, 2.0 wt% compound, 21 d
[33] = base formulation V, 2.0 wt% compound, 28 d
[34] = base formulation V, 2.0 wt% compound, 35 d
[35] = base formulation V, 2.0 wt% compound, T0

Row | Compound | protease activity in the course of time of storage at 37° C. [1] | protease activity in the course of time of storage at 37° C. [2] | protease activity in the course of time of storage at 37° C. [3] | protease activity in the course of time of storage at 37° C. [4] | protease activity in the course of time of storage at 37° C. [5] | protease activity in the course of time of storage at 37° C. [6] | protease activity in the course of time of storage at 37° C. [8] | protease activity in the course of time of storage at 37° C. [9] | protease activity in the course of time of storage at 37° C. [10] | protease activity in the course of time of storage at 37° C. [11] | protease activity in the course of time of storage at 37° C. [12] | protease activity in the course of time of storage at 37° C. [13] | protease activity in the course of time of storage at 37° C. [14] | protease activity in the course of time of storage at 37° C. [15] | protease activity in the course of time of storage at 37° C. [16] | protease activity in the course of time of storage at 37° C. [17] | protease activity in the course of time of storage at 37° C. [18] | protease activity in the course of time of storage at 37° C. [19] | protease activity in the course of time of storage at 37° C. [20] | protease activity in the course of time of storage at 37° C. [21] | other results
1 | CCOC(=O)CC(O)(CC(=O)OCC)C(=O)OCC [A.1, Triethylcitrate] | 96% | 93% | 89% | 83% | 79% | 72% | 100% | 96% | 93% | 89% | 83% | 78% | 100% | 98% | 94% | 91% | 87% | 84% | 81% | 100% | protease activity in the course of time of storage at 37° C. [7]: 100%; protease activity in the course of time of storage at 37° C. [22]: 96%; protease activity in the course of time of storage at 37° C. [23]: 93%; protease activity in the course of time of storage at 37° C. [24]: 88%; protease activity in the course of time of storage at 37° C. [25]: 82%; protease activity in the course of time of storage at 37° C. [26]: 79%; protease activity in the course of time of storage at 37° C. [27]: 74%; protease activity in the course of time of storage at 37° C. [28]: 98%; protease activity in the course of time of storage at 37° C. [29]: 94%; protease activity in the course of time of storage at 37° C. [30]: 90%; protease activity in the course of time of storage at 37° C. [31]: 86%; protease activity in the course of time of storage at 37° C. [32]: 83%; protease activity in the course of time of storage at 37° C. [33]: 79%; protease activity in the course of time of storage at 37° C. [34]: 75%; protease activity in the course of time of storage at 37° C. [35]: 97%
2 | CCCOC(=O)CC(O)(CC(=O)OCCC)C(=O)OCCC [A.2, Tripropylcitrate] | 100% | 94% | 91% | 85% | 80% | 76% |  |  |  |  |  |  |  | 100% | 100% | 96% | 91% | 88% | 84% | 102% | protease activity in the course of time of storage at 37° C. [7]: 101%
3 | CCCCOC(=O)CC(O)(CC(=O)OCCCC)C(=O)OCCCC [A.3, Tributylcitrate] |  |  |  |  |  |  |  |  |  |  |  |  |  |  |  |  |  |  |  |  | protease activity in the course of time of storage at 37° C. [22]: 100%; protease activity in the course of time of storage at 37° C. [23]: 96%; protease activity in the course of time of storage at 37° C. [24]: 91%; protease activity in the course of time of storage at 37° C. [25]: 84%; protease activity in the course of time of storage at 37° C. [26]: 81%; protease activity in the course of time of storage at 37° C. [27]: 77%; protease activity in the course of time of storage at 37° C. [28]: 99%; protease activity in the course of time of storage at 37° C. [29]: 98%; protease activity in the course of time of storage at 37° C. [30]: 93%; protease activity in the course of time of storage at 37° C. [31]: 88%; protease activity in the course of time of storage at 37° C. [32]: 85%; protease activity in the course of time of storage at 37° C. [33]: 80%; protease activity in the course of time of storage at 37° C. [34]: 74%; protease activity in the course of time of storage at 37° C. [35]: 101%
4 | CCCCOC(=O)CC(CC(=O)OCCCC)(OC(C)=O)C(=O)OCCCC [A.4, Acetyltributylcitrate] | 100% | 96% | 92% | 87% | 83% | 79% |  |  |  |  |  |  |  |  |  |  |  |  |  |  | 
5 | CCOC(=O)CC(CC(=O)OCC)(OC(C)=O)C(=O)OCC [A.5, Acetyltriethylcitrate] | 96% | 94% | 90% | 85% | 82% | 78% | 101% | 100% | 94% | 90% | 85% | 81% | 102% | 97% | 95% | 91% | 86% | 81% | 77% | 99% | protease activity in the course of time of storage at 37° C. [7]: 98%
6 | CCOC(=O)CC(O)(CC(=O)O)C(=O)O (stereo not shown) [A.6, Monoethylcitrate] |  |  |  |  |  |  | 102% | 100% | 95% | 92% | 87% | 83% | 101% | 96% | 92% | 86% | 82% | 79% | 76% | 99% | 
7 | O=C(CC(O)(CC(=O)OCc1ccccc1)C(=O)OCc1ccccc1)OCc1ccccc1 [A.8, Tribenzylcitrate] |  |  |  |  |  |  | 94% | 91% | 88% | 85% | 83% | 77% | 100% |  |  |  |  |  |  |  | protease activity in the course of time of storage at 37° C. [29]: 96%; protease activity in the course of time of storage at 37° C. [30]: 92%; protease activity in the course of time of storage at 37° C. [31]: 86%; protease activity in the course of time of storage at 37° C. [32]: 84%; protease activity in the course of time of storage at 37° C. [33]: 80%; protease activity in the course of time of storage at 37° C. [34]: 73%; protease activity in the course of time of storage at 37° C. [35]: 96%

From patent US20210395650A1, “COMPOUNDS STABILIZING HYDROLASES IN LIQUIDS” (BASF SE, priority 2018, published 2021)
